{"source": "patent US20040157240A1", "about": "“Diagnostic assay and related products” (The Brigham & Women's Hospital, Inc., priority 2002, published 2004)", "key": {"[1]": {"experiment": "CAMP (Childhood Asthma Management Program): clinical trial of inhaled budesonide vs. nedocromil vs. placebo, change in FEV1", "type": "in vivo, human", "text": "The Childhood Asthma Management Program (CAMP) was a randomized, double-masked, long term clinical trial testing the safety and efficacy of inhaled budesonide vs. nedocromil vs. placebo (27). The mean duration of follow-up was 4 years (28). 311 children (males and females for a variety of race and age groups) were randomized to the steroid group, with a mean improvement of 6.8% in their FEV1 at one year. Of these, 65% were Caucasian. These formed the basis for our replication sample.\nCAMP is a multicenter, randomized, double-blinded clinical trial testing the safety and efficacy of inhaled budesonide vs. nedocromil vs. placebo over a mean of 4.3 years. Trial design and methodology have been published (27, 28). The replication sample subjects were the Caucasian CAMP children randomized to the steroid group, evaluated at their 2 month follow-up visit.\n(§1) The primary outcome measure of the association analyses was percent change in FEV1 over time in response to inhaled steroids, defined as the FEV1 difference from baseline to eight weeks for the Adult Study and CAMP, and to six weeks in ACRN, divided by the baseline value."}, "[2]": {"experiment": "Adult Study (Forest study): 8-week clinical trial of inhaled flunisolide vs. standard inhaled corticosteroid therapy, change in FEV1", "type": "in vivo, human", "conditions": "on inhaled corticosteroids, evaluated at 8 weeks; mean ± standard deviation; N 470", "excerpt": "The Forest study (also known as the Adult Study) was an 8 week clinical trial used to compare the effect of once daily high dose inhaled flunisolide vs. “standard inhaled corticosteroid therapy” (performed by Forest Pharmaceuticals). […] Of these participants, 7% were African American, 3% were Hispanic and 2% were other. As 88% of these participants were Caucasian, analyses focus on this group. Additionally, females accounted for 58.5% of the participants.\nThe Adult Study was a multicenter 8-week randomized clinical trial comparing the effect of once-daily high-dose inhaled flunisolide vs. standard inhaled corticosteroid therapy. Inclusion criteria were a history of asthma, >12% improvement in FEV1 with albuterol and using inhaled steroids at randomization. Exclusion criteria were non-asthma pulmonary disease, smoking (≧10 pack-years) and recent asthma exacerbations requiring systemic steroids. Subjects were phoned weekly and had spirometry at 4 and 8 weeks."}, "[3]": {"experiment": "ACRN (SOCS/SLIC) 6-week run-in period on inhaled triamcinolone, change in FEV1", "type": "in vivo, human", "conditions": "on inhaled corticosteroids, evaluated at 6 weeks; mean ± standard deviation; N 336", "text": "Two completed trials conducted by the ACRN (Asthma Clinical Research Network), the salmeterol or corticosteroids (SOCS) (54) and salmeterol±inhaled corticosteroids (SLIC)\nDetails regarding the entry criteria, run-in period and randomization have been published with the primary trial results (54, 55). Of the 339 subjects eligible for randomization, 336 had DNA available; 66.7% of these were Caucasian, forming the basis of the second replication sample.\nas §1"}, "[4]": {"test_system": "β2-adrenergic receptor gene", "conditions": "cited from earlier work"}}}
{"molecule": "CCCC1O[C@@H]2C[C@H]3[C@@H]4CCC5=CC(=O)C=C[C@]5(C)[C@H]4[C@@H](O)C[C@]3(C)[C@]2(C(=O)CO)O1", "note": "(stereo partly drawn) [Budesonide]", "values": [{"measurement": "mean improvement in FEV1", "setting": "[1]; at one year, 311 children randomized to the steroid group", "result": 6.8, "unit": "%"}, {"measurement": "Mean Change in FEV1", "setting": "[1]; on inhaled corticosteroids, evaluated at 8 weeks, mean ± standard deviation, N 311", "result": "8.3 ± 14.1", "unit": "%"}]}
{"molecule": "CC1(C)O[C@@H]2C[C@H]3[C@@H]4C[C@H](F)C5=CC(=O)C=C[C@]5(C)[C@H]4[C@@H](O)C[C@]3(C)[C@]2(C(=O)CO)O1", "note": "[Flunisolide]", "values": [{"measurement": "Mean Change in FEV1", "setting": "[2]", "result": "7.0 ± 19.3", "unit": "%"}]}
{"molecule": "C[C@]12C=CC(=O)C=C1CC[C@H]1[C@@H]3C[C@@H](O)[C@](O)(C(=O)CO)[C@@]3(C)C[C@H](O)[C@@]12F", "note": "[Triamcinolone]", "values": [{"measurement": "Mean Change in FEV1", "setting": "[3]", "result": "6.7 ± 19.7", "unit": "%"}]}
{"molecule": "CC(C)(C)NCC(O)c1ccc(O)c(CO)c1", "note": "(stereo not drawn) [albuterol]", "values": [{"measurement": "acute bronchodilator response", "setting": "[4]; Arg/Arg children than Gly/Gly children", "result": "more likely"}, {"measurement": "peak expiratory flow rates", "setting": "[4]; regular utilization, Arg/Arg at position 16, compared to Arg/Arg receiving prn and Gly/Gly", "result": "significantly decrease"}]}
